Assay results from PubChem BioAssay (NCI).
“And” between values parts separate entries of the source, which are not always exact repeats. Equal values may be shown once.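 Where inhibition never reached the appropriate level, the endpoint shown equals the highest concentration tested. Otherwise, values were interpolated linearly from a five-concentration, 48-hour dose response in 96-well plates. GI50 marks 50% less growth. TGI: total growth inhibition.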

Tests used:
Assay in all cases: inhibition of tumour cell growth, NCI panel, 48 h
[1] = test system: LOX IMVI melanoma
[2] = test system: SF-268 CNS
[3] = test system: SK-OV-3 ovarian
[4] = test system: SN12C renal
[5] = test system: SNB-75 CNS
[6] = test system: SW-620 colon
[7] = test system: UACC-62 melanoma
[8] = test system: UO-31 renal
[9] = test system: MDA-MB-231 breast
[10] = test system: MDA-MB-435

Compound | TGI [1] [µM] | TGI [2] [µM] | TGI [3] | TGI [4] | TGI [5] [µM] | TGI [6] [µM] | TGI [7] | TGI [8] | TGI [9] [µM] | TGI [10] [µM] | GI50 [1] [µM] | GI50 [9] [µM] | GI50 [10] [µM] | GI50 [2] [µM] | GI50 [3] [µM] | GI50 [4] [µM] | GI50 [6] [µM] | GI50 [7] [µM] | GI50 [8] [µM]
COCOc1ccc(Cn2c(=O)n(C)c(=O)c3c2ncn3C)cc1[N+](=O)[O-] | > 100 | > 100 | > 100 µM | > 100 µM | > 100 | > 100 | > 100 µM | > 100 µM |  |  |  |  |  |  |  |  |  |  | 
O=C1/C(=C\c2cccc(Oc3ccccc3)c2)S(=O)(=O)C(c2ccccc2)N1Cc1ccccc1 (stereo unspecified) | 62.9 |  | > 100 µM | 58.6 µM |  | > 100 | 57.7 µM | 47.9 µM | 68.1 | 96.5 |  |  |  |  |  |  |  |  | 
COc1ccc(CC(O)CN2CCOCC2)cc1 (stereo unspecified) | > 100 | > 100 |  | > 100 µM |  | > 100 | > 100 µM | > 100 µM | > 100 | > 100 |  |  |  |  |  |  |  |  | 
Cc1c(C(=O)CSc2nc3ccccc3c(=O)n2-c2ccccc2)c(=O)n(-c2ccccc2)n1C | > 100 | > 100 | 41.4 µM | > 100 µM | > 100 | > 100 |  | 79.4 µM |  |  |  |  |  |  |  |  |  |  | 
CC(C(=O)n1nnc2ccccc21)N(c1ccccc1)c1ccccc1 (stereo unspecified) | > 100 | > 100 | > 100 µM | > 100 µM | > 100 | > 100 | > 100 µM | > 100 µM |  |  |  |  |  |  |  |  |  |  | 
CC[C@H]1CN2CCc3cc(OC)c(OC)cc3[C@@H]2C[C@@H]1C[C@H]1NCCc2cc(OC)c(OC)cc21 | 0.0205 |  | 0.223 µM and 0.991 µM | 0.295 µM and 0.271 µM |  |  | 0.206 µM and 0.0957 µM | 0.242 µM and 0.978 µM | 0.0458 | 0.0442 |  |  |  |  |  |  |  |  | 
Cc1c(S(=O)(=O)/N=C(\N)Nc2ccc(Cl)cc2)sc2ccc(Cl)cc12 | 36.3 | 32 | 86.8 µM | 31.2 µM | 43.5 | 58.1 | 45.4 µM | 35.9 µM | 32.9 |  |  |  |  |  |  |  |  |  | 
O=C(NC(Cc1ccc(I)cc1)C(=O)O)c1ccc(I)cc1 (stereo unspecified) | > 100 | > 100 | > 100 µM | > 100 µM | > 100 | > 37.3 | > 82.1 µM | > 36.6 µM |  |  |  |  |  |  |  |  |  |  | 
COc1cc([N+](=O)[O-])c(OC)cc1-c1nc2sc(Cl)cn2c1/C=N/Nc1ccccn1 | > 50 | > 50 | 16.5 µM | 36.8 µM |  | > 50 | > 50 µM | > 50 µM | 30.7 | > 50 | > 50 | 8.61 | > 50 | 19.2 | 9.11 | 8.53 | > 50 | 26 | > 50
CCCNC(=O)CCC(C)[C@H]1CCC2C3C(C[C@H](OC(C)=O)[C@@]21C)[C@@]1(C)CCC2(C[C@H]1C[C@H]3OC(C)=O)OOC1(CCC(C)CC1)OO2 (stereo partly specified) |  | 50.8 | > 100 µM | > 100 µM | 53.5 |  | > 100 µM | 2.42 µM | 98.4 | 39.5 |  |  |  |  |  |  |  |  | 
N#C/C(=C\c1cc(Br)c(O)c(Br)c1)c1cccnc1 |  | > 100 | > 100 µM | > 100 µM | > 100 | > 100 | > 100 µM | 58.1 µM |  |  |  |  |  |  |  |  |  |  | 
Cc1ccccc1C(O)(c1nccn1C)c1nccn1C |  | > 100 | > 100 µM | > 100 µM | > 100 | > 100 | > 100 µM | > 100 µM |  | > 100 |  |  |  |  |  |  |  |  | 
CC(=O)OCC1OC(n2cc([N+](=O)[O-])c(=O)[nH]c2=O)C(OC(C)=O)C(OC(C)=O)C1OC(C)=O (stereo unspecified) | > 100 | > 100 | > 100 µM | > 100 µM | > 100 | > 100 | > 100 µM | > 100 µM |  |  |  |  |  |  |  |  |  |  | 
CC(C)(C)NC(=O)/C(=C\Sc1ccccc1)c1ccc2c(c1)OCO2 | 48.9 | 52.3 | > 100 µM | 84.2 µM |  | > 100 | 57.9 µM | > 100 µM | 52.8 | 47.7 |  |  |  |  |  |  |  |  | 
Cc1cn(C2OC(C)(CO)C(O)C2O)c(=O)[nH]c1=O (stereo unspecified) | > 100 | > 100 | > 100 µM | > 100 µM | > 100 | > 100 | > 100 µM | > 100 µM |  |  |  |  |  |  |  |  |  |  | 
N#CCCN(CCC#N)c1ccc(/C=C2\N=C(c3ccccc3)N(c3ccc(Cl)cc3)C2=O)cc1 | > 100 | > 100 | > 100 µM | > 100 µM |  | > 100 | > 100 µM | > 100 µM | > 100 | > 100 |  |  |  |  |  |  |  |  | 
O=S(=O)(O)c1cc2ccc1/C=C\c1ccc(cc1S(=O)(=O)O)N=Nc1ccc(c(S(=O)(=O)O)c1)/C=C\c1ccc(cc1S(=O)(=O)O)N=N2 | > 100 | > 100 | > 100 µM | > 100 µM | > 100 | > 100 | > 100 µM | > 100 µM |  |  |  |  |  |  |  |  |  |  | 
